From PMC8309759, “A Dual-Sensor-Based Screening System for In Vitro Selection of TDP1 Inhibitors” (Sensors (Basel, Switzerland), 2021)
Like-named read-outs stand apart in the source and are kept apart here.

How the values were obtained:
[1] = molecular target: T1, topoisomerase 1 (TOP1) (Homo sapiens, UniProt P11387); test: REEAD cleavage-ligation assay with purified TOP1, […] CPT; type: biochemical
T1 sequence (P11387 2-765): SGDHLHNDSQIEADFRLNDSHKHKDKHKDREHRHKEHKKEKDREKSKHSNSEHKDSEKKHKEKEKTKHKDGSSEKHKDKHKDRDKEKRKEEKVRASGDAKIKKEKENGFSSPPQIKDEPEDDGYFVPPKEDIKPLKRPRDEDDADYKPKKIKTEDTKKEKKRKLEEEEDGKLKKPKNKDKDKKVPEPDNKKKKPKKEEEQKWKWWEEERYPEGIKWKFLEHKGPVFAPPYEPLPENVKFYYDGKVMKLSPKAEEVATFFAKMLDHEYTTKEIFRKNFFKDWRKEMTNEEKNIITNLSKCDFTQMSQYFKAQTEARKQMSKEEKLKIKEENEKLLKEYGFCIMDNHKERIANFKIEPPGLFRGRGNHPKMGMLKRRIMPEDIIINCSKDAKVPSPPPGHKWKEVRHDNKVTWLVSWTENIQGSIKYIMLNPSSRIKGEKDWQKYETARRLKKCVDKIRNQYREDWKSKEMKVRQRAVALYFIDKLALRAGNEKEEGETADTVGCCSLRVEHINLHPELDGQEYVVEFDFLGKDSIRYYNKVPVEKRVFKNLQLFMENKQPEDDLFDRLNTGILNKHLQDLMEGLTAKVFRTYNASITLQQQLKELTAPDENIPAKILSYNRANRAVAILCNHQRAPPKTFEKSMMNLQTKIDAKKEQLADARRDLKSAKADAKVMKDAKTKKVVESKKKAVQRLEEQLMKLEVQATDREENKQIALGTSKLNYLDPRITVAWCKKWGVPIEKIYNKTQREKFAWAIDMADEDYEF

[2] = molecular target: tyrosyl-DNA phosphodiesterase 1 (TDP1) (Homo sapiens, UniProt Q9NUW8); test: fluorescent hairpin DNA sensor (ATTO488/BHQ1) assay with purified human TDP1, 13-point dose response; type: biochemical
Sequence of tyrosyl-DNA phosphodiesterase 1 (TDP1) (Q9NUW8 whole entry): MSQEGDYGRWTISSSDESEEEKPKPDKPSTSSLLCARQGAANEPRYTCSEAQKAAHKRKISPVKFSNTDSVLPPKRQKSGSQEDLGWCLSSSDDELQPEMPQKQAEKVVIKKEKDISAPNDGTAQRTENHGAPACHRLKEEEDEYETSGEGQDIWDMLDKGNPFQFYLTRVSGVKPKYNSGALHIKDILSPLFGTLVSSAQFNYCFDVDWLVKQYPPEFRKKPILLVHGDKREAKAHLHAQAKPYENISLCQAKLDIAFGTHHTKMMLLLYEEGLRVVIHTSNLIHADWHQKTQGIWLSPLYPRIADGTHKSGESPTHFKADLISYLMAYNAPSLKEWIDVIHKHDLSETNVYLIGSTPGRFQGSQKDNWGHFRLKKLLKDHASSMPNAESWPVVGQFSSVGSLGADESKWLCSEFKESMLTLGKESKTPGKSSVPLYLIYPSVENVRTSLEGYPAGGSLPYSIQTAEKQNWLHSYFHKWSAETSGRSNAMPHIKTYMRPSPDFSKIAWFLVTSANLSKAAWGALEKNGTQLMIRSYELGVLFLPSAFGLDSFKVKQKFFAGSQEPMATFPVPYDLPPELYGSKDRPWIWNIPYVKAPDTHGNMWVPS

SMILES | IC50 [2] [µM] | further results
CC[C@@]1(O)C(=O)OCc2c1cc1n(c2=O)Cc2cc3ccccc3nc2-1 [CPT, camptothecin] |  | REEAD cleavage-ligation assay with purified TOP1, 80 μM CPT [1]: CPT control is a positive control for TOP1 inhibition.
COc1ccc(-c2cc(-c3ccc([N+](=O)[O-])cc3)nc3cccnc23)cc1 [NAF-15] |  | IC50 ([2]; read-out: IC50): 37.8 µM
FC(F)(F)c1ccc(C2CC(c3ccccc3)c3cccc(P(=S)(c4ccccc4)c4ccccc4)c3N2)cc1 (stereo not shown) [PSTHQ-2] | 4.28 | 
O=[N+]([O-])c1ccc(C2CC(c3ccccc3)c3cccc(P(=S)(c4ccccc4)c4ccccc4)c3N2)cc1 (stereo not shown) [PSTHQ-13] | 13.1 | 
